Laboratory results taken from the NIST ThermoML archive (doi:10.1016/j.jct.2018.02.013).

How the values were obtained:
[1] = 101.33 kPa, Liquid; for thermal conductivity: transient hot wire; for mass density: Vibrating tube method; for viscosity: Cone and plate viscometry; for electrical conductivity: Direct current cell with electrodes
[2] = molar heat capacity at constant pressure; details: 101.33 kPa, Liquid, Small sample (50 mg) DSC

CCCCCCCCn1cc[n+](C)c1.O=S(=O)([N-]S(=O)(=O)C(F)(F)F)C(F)(F)F
[1]
Details	thermal conductivity [W/m/K]
280.03 K	0.1289
288.73 K	0.1279
297.76 K	0.1279
307.59 K	0.1279
318.58 K	0.1265
328.58 K	0.1259
337.48 K	0.1259
347.72 K	0.1259
357.76 K	0.1245

CC(=O)[O-].CCCCCCCCCCCCCC[P+](CCCCCC)(CCCCCC)CCCCCC [trihexyl(tetradecyl)phosphonium acetate]
Details	electrical conductivity [S/m]	mass density [kg/m3]	molar heat capacity at constant pressure [J/K/mol]	thermal conductivity [W/m/K]	viscosity [mPa·s]
[1], 278.37 K	–	–	–	0.1629	–
[1], 288.1 K	–	–	–	0.1612	–
[1], 293.15 K	–	897.6	–	–	–
[1], 293.2 K	–	–	–	–	254
[1], 298.15 K	–	894.6	–	–	–
[1], 298.16 K	–	–	–	0.1602	–
[1], 298.2 K	–	–	–	–	196.2
[1], 299.6 K	0.00554	–	–	–	–
[1], 303.15 K	–	891.5	–	–	–
[1], 303.2 K	–	–	–	–	151.2
[1], 303.9 K	0.00767	–	–	–	–
[1], 307.92 K	–	–	–	0.1598	–
[1], 308.2 K	–	–	–	–	117.4
[1], 308.7 K	0.0101	–	–	–	–
[1], 313.15 K	–	885.2	–	–	–
[1], 313.2 K	–	–	–	–	92.23
[1], 313.7 K	0.0129	–	–	–	–
[1], 317.98 K	–	–	–	0.1582	–
[1], 318.2 K	–	–	–	–	73.75
[1], 318.8 K	0.0167	–	–	–	–
[1], 323.15 K	–	879	–	–	–
[1], 323.2 K	–	–	–	–	59.32
[1], 323.8 K	0.0209	–	–	–	–
[1], 328.08 K	–	–	–	0.1565	–
[1], 328.2 K	–	–	–	–	48.52
[1], 328.8 K	0.026	–	–	–	–
[1], 333.15 K	–	872.9	–	–	–
[1], 333.2 K	–	–	–	–	40.22
[1], 333.9 K	0.0317	–	–	–	–
[1], 338 K	–	–	–	0.1558	–
[1], 338.2 K	–	–	–	–	33.78
[1], 338.9 K	0.0383	–	–	–	–
[1], 343.15 K	–	866.7	–	–	–
[1], 343.2 K	–	–	–	–	28.55
[1], 343.9 K	0.0458	–	–	–	–
[1], 348.06 K	–	–	–	0.1551	–
[1], 348.2 K	–	–	–	–	24.46
[1], 349 K	0.0542	–	–	–	–
[1], 353.15 K	–	860.7	–	–	–
[1], 353.2 K	–	–	–	–	20.95
[1], 357.1 K	–	–	–	0.1541	–
[1], 358.2 K	–	–	–	–	18.13
[1], 363.15 K	–	854.7	–	–	–
[1], 363.2 K	–	–	–	–	15.71
[1], 368.2 K	–	–	–	–	13.72
[2], 293.15 K	–	–	1095.6	–	–
[2], 298.15 K	–	–	1097.7	–	–
[2], 303.15 K	–	–	1101.5	–	–
[2], 308.15 K	–	–	1105.9	–	–
[2], 313.15 K	–	–	1111.3	–	–
[2], 318.15 K	–	–	1116.7	–	–
[2], 323.15 K	–	–	1122.7	–	–
[2], 328.15 K	–	–	1128.1	–	–
[2], 333.15 K	–	–	1134.1	–	–
[2], 338.15 K	–	–	1140.6	–	–
[2], 343.15 K	–	–	1147.1	–	–
[2], 348.15 K	–	–	1154.2	–	–
[2], 353.15 K	–	–	1158.5	–	–
[2], 358.15 K	–	–	1166.7	–	–
[2], 363.15 K	–	–	1173.2	–	–
